Test results from patent publication US20220030867A1 (priority 2018, published 2022).

Key:
[1] = tested on: Fusarium culmorum; test: whole plant or invertebrate; assay type: in vivo, Fusarium culmorum on wheat spikelets cv. Monsun; conditions: in Triticum aestivum, read-out: control of Fusarium culmorum
[2] = tested on: Magnaporthe grisea (Pyricularia oryzae); test: whole plant or invertebrate; assay type: in vivo, Magnaporthe grisea on rice leaf segments cv. Ballila; conditions: foliar, read-out: control of Magnaporthe grisea

Cc1nc2c(F)cccc2cc1NC(=O)C(C)(Cc1cccc(F)c1)CC(F)(F)F (stereo not drawn) [Compound E-8, 4,4,4-trifluoro-N-(8-fluoro-2-methyl-3-quinolyl)-2-[(3-fluorophenyl)methyl]-2-methyl-butanamide]
pest or weed control at 200 ppm [1]: ≥ 80%
pest or weed control at 200 ppm [2]: ≥ 80%

CC(C)CC(C)(Cc1ccccc1)C(=O)Nc1cnc2c(Cl)cccc2c1 (stereo not drawn) [Compound E-9, 2-benzyl-N-(8-chloro-3-quinolyl)-2,4-dimethyl-pentanamide]
melting point: 163 to 165 °C

C=C(C)CC(C)(Cc1cccc(F)c1)C(=O)Nc1cnc2c(F)cccc2c1 (stereo not drawn) [Compound E-11, 2-[(3-fluorophenyl)-methyl]-N-(8-fluoro-3-quinolyl)-2,4-dimethyl-pent-4-enamide]
melting point: 125 to 127 °C

C=C(C)CC(C)(Cc1cccc(F)c1)C(=O)Nc1cc2cccc(F)c2nc1C (stereo not drawn) [Compound E-12, N-(8-fluoro-2-methyl-3-quinolyl)-2-[(3-fluorophenyl)methyl]-2,4-dimethyl-pent-4-enamide]
melting point: 124 to 126 °C

Cc1c(NC(=O)C(C)(Cc2ccccc2)CC(C)C)cnc2c(Cl)cccc12 (stereo not drawn) [Compound E-14, 2-benzyl-N-(8-chloro-4-methyl-3-quinolyl)-2,4-dimethyl-pentanamide]
melting point: 124 to 126 °C

Cc1c(NC(=O)C(C)(Cc2ccccc2)CC(F)(F)F)cnc2c(Cl)cccc12 (stereo not drawn) [Compound E-15, 2-benzyl-N-(8-chloro-4-methyl-3-quinolyl)-4,4,4-trifluoro-2-methyl-butanamide]
melting point: 73 to 75 °C

CC(Cc1ccc(F)cc1)(CC(F)(F)F)C(=O)Nc1cnc2c(F)cccc2c1 (stereo not drawn) [Compound E-18, 4,4,4-trifluoro-2-[(4-fluorophenyl)methyl]-N-(8-fluoro-3-quinolyl)-2-methyl-butanamide]
pest or weed control at 200 ppm [2]: ≥ 80%

Cc1c(NC(=O)C(Cc2ccccc2)CC(C)C)cnc2c(F)cccc12 (stereo not drawn) [Compound E-19, 2-benzyl-N-(8-fluoro-4-methyl-3-quinolyl)-4-methyl-pentanamide]
pest or weed control at 200 ppm [1]: ≥ 80%
pest or weed control at 200 ppm [2]: ≥ 80%

CC(Cc1ccccc1)(CC1(F)CC1)C(=O)Nc1cnc2c(F)cccc2c1 (stereo not drawn) [Compound E-25, 2-benzyl-3-(1-fluorocyclopropyl)-N-(8-fluoro-3-quinolyl)-2-methyl-propanamide]
melting point: 162 to 164 °C
pest or weed control at 200 ppm [1]: ≥ 80%

C/C=C\CC(C)(Cc1ccccc1)C(=O)Nc1cnc2c(F)cccc2c1 (stereo not drawn) [Compound E-28, (Z)-2-benzyl-N-(8-fluoro-3-quinolyl)-2-methyl-hex-4-enamide]
melting point: 128 to 130 °C
pest or weed control at 200 ppm [1]: ≥ 80%

CC(Cc1ccccc1)C(=O)Nc1cnc2c(F)cccc2c1 (stereo not drawn) [Compound E-31, N-(8-fluoro-3-quinolyl)-2-methyl-3-phenyl-propanamide]
melting point: 188 to 190 °C

COCN(C(=O)C(C)(Cc1ccccc1)CC(F)(F)F)c1cnc2c(F)cccc2c1 (stereo not drawn) [Compound E-33, 2-benzyl-4,4,4-trifluoro-N-(8-fluoro-3-quinolyl)-N-(methoxymethyl)-2-methyl-butanamide]
melting point: 108 to 110 °C

COC(Cc1ccccc1)(CC(C)C)C(=O)Nc1cc2cccc(F)c2nc1C (stereo not drawn) [Compound E-37, 2-benzyl-N-(8-fluoro-2-methyl-3-quinolyl)-2-methoxy-4-methyl-pentanamide]
melting point: 92 to 94 °C
pest or weed control at 200 ppm [1]: ≥ 80%

COC(Cc1ccccc1)(CC(C)C)C(=O)Nc1cnc2c(F)cccc2c1 (stereo not drawn) [Compound E-38, 2-benzyl-N-(8-fluoro-3-quinolyl)-2-methoxy-4-methyl-pentanamide]
melting point: 133 to 135 °C
pest or weed control at 200 ppm [1]: ≥ 80%

CN(C(=O)C(C)(Cc1ccccc1)CC(F)(F)F)c1cnc2c(F)cccc2c1 (stereo not drawn) [Compound E-42, 2-benzyl-4,4,4-trifluoro-N-(8-fluoro-3-quinolyl)-N,2-dimethyl-butanamide]
melting point: 137 to 139 °C

COC(C)(Cc1ccccc1)C(=O)Nc1cnc2c(F)cccc2c1 (stereo not drawn) [Compound E-43, N-(8-fluoro-3-quinolyl)-2-methoxy-2-methyl-3-phenyl-propanamide]
melting point: 107 to 109 °C
pest or weed control at 200 ppm [1]: ≥ 80%

Cc1nc2c(F)cccc2cc1NC(=O)C(Cc1ccccc1)CC(F)(F)F (stereo not drawn) [Compound E-44, 2-benzyl-4,4,4-trifluoro-N-(8-fluoro-2-methyl-3-quinolyl)-butanamide]
pest or weed control at 200 ppm [1]: ≥ 80%
pest or weed control at 200 ppm [2]: ≥ 80%

C=C(C)CC(CC)(Cc1ccccc1)C(=O)Nc1cnc2c(F)cccc2c1 (stereo not drawn) [Compound E-46, 2-benzyl-2-ethyl-N-(8-fluoro-3-quinolyl)-4-methyl-pent-4-enamide]
pest or weed control at 200 ppm [2]: ≥ 80%

CC(C)=CC(C)(Cc1ccccc1)C(=O)Nc1cnc2c(F)cccc2c1 (stereo not drawn) [Compound E-48, 2-benzyl-N-(8-fluoro-3-quinolyl)-2,4-dimethyl-pent-3-enamide]
melting point: 167 to 169 °C
pest or weed control at 200 ppm [1]: ≥ 80%

CC(Cc1ccccc1)(CC(F)(F)F)C(=O)Nc1cnc2cccc(F)c2c1 (stereo not drawn) [Compound E-49, 2-benzyl-4,4,4-trifluoro-N-(5-fluoro-3-quinolyl)-2-methyl-butanamide]
melting point: 140 to 142 °C

CC(Cc1ccccc1)(CC(F)(F)F)C(=O)Nc1cnc2c(Cl)cccc2c1 (stereo not drawn) [Compound E-51, 2-benzyl-N-(8-chloro-3-quinolyl)-4,4,4-trifluoro-2-methyl-butanamide]
melting point: 104 to 106 °C
pest or weed control at 200 ppm [1]: ≥ 80%

CC(Cc1ccccc1)(CC(F)(F)F)C(=O)Nc1cnc2cc(F)ccc2c1 (stereo not drawn) [Compound E-52, 2-benzyl-4,4,4-trifluoro-N-(7-fluoro-3-quinolyl)-2-methyl-butanamide]
melting point: 180 to 182 °C

C=C(Cl)CC(C)(Cc1ccccc1)C(=O)Nc1cnc2c(F)cccc2c1 (stereo not drawn) [Compound E-53, 2-benzyl-4-chloro-N-(8-fluoro-3-quinolyl)-2-methyl-pent-4-enamide]
melting point: 148 to 150 °C
pest or weed control at 200 ppm [1]: ≥ 80%

C=C(CC)CC(C)(Cc1ccccc1)C(=O)Nc1cnc2c(F)cccc2c1 (stereo not drawn) [Compound E-54, 2-benzyl-N-(8-fluoro-3-quinolyl)-2-methyl-4-methylene-hexanamide]
melting point: 118 to 120 °C

O=C(Nc1cnc2c(F)cccc2c1)C(Cc1ccccc1)CC(F)(F)Cl (stereo not drawn) [Compound E-58, 2-benzyl-4-chloro-4,4-difluoro-N-(8-fluoro-3-quinolyl)butanamide]
melting point: 65 to 70 °C
pest or weed control at 200 ppm [1]: ≥ 80%

Cc1cccc2cc(NC(=O)C(C)(Cc3ccccc3)CC(F)(F)F)cnc12 (stereo not drawn) [Compound E-59, 2-benzyl-4,4,4-trifluoro-2-methyl-N-(8-methyl-3-quinolyl)-butanamide]
melting point: 123 to 125 °C
pest or weed control at 200 ppm [1]: ≥ 80%

CC(Cc1ccccc1)(CC(F)(F)F)C(=O)Nc1cnc2c(F)c(F)ccc2c1 (stereo not drawn) [Compound E-60, 2-benzyl-N-(7,8-difluoro-3-quinolyl)-4,4,4-trifluoro-2-methyl-butanamide]
melting point: 183 to 186 °C
pest or weed control at 200 ppm [1]: ≥ 80%

C=C(C)CC(C)(Cc1ccccc1)C(=O)Nc1cnc2c(Br)cccc2c1 (stereo not drawn) [Compound E-63, 2-benzyl-N-(8-bromo-3-quinolyl)-2,4-dimethyl-pent-4-enamide]
melting point: 165 to 169 °C
pest or weed control at 200 ppm [1]: ≥ 80%

C=C(C)CC(C)(Cc1ccccc1)C(=O)Nc1cnc2c(F)cccc2c1C (stereo not drawn) [Compound E-65, 2-benzyl-N-(8-fluoro-4-methyl-3-quinolyl)-2,4-dimethyl-pent-4-enamide]
melting point: 105 to 109 °C

CC(F)(F)CC(C)(Cc1ccccc1)C(=O)Nc1cnc2c(F)cccc2c1 (stereo not drawn) [Compound E-68, 2-benzyl-4,4-difluoro-N-(8-fluoro-3-quinolyl)-2-methyl-pentanamide]
melting point: 156 to 158 °C
pest or weed control at 200 ppm [1]: ≥ 80%

CC1(CC(C)(Cc2ccccc2)C(=O)Nc2cnc3c(F)cccc3c2)CC1 (stereo not drawn) [Compound E-70, 2-benzyl-N-(8-fluoro-3-quinolyl)-2-methyl-3-(1-methylcyclopropyl)propanamide]
melting point: 149 to 151 °C

C=C(F)CC(C)(Cc1ccccc1)C(=O)Nc1cnc2c(F)cccc2c1 (stereo not drawn) [Compound E-71, 2-benzyl-4-fluoro-N-(8-fluoro-3-quinolyl)-2-methyl-pent-4-enamide]
melting point: 132 to 134 °C
pest or weed control at 200 ppm [1]: ≥ 80%

C=C(C)CC(C)(Cc1ccccc1)C(=O)Nc1cnc2c(F)cccc2c1 (stereo not drawn) [Compound E-74, 2-benzyl-N-(8-fluoro-3-quinolyl)-2,4-dimethyl-pent-4-enamide]
melting point: 147 to 149 °C
pest or weed control at 200 ppm [1]: ≥ 80%

CC(Cc1ccccc1)(CC(F)(F)F)C(=O)Nc1cnc2c(F)cccc2c1 (stereo not drawn) [Compound E-80, 2-benzyl-4,4,4-trifluoro-N-(8-fluoro-3-quinolyl)-2-methyl-butanamide]
pest or weed control at 200 ppm [1]: ≥ 80%
pest or weed control at 200 ppm [2]: ≥ 80%

O=C(Nc1cnc2c(F)cccc2c1)C(Cc1ccccc1)CC(F)(F)F (stereo not drawn) [Compound E-82, 2-benzyl-4,4,4-trifluoro-N-(8-fluoro-3-quinolyl)butanamide]
melting point: 161 to 164 °C
pest or weed control at 200 ppm [1]: ≥ 80%

CC(C)CC(C)(Cc1ccccc1)C(=O)Nc1cnc2c(F)cccc2c1 (stereo not drawn) [Compound E-87, 2-benzyl-N-(8-fluoro-3-quinolyl)-2,4-dimethyl-pentanamide]
melting point: 140 to 142 °C
pest or weed control at 200 ppm [1]: ≥ 80%

CC(C)(C)C(Cc1ccccc1)C(=O)Nc1cnc2c(F)cccc2c1 (stereo not drawn) [Compound E-88, 2-benzyl-N-(8-fluoro-3-quinolyl)-3,3-dimethyl-butanamide]
melting point: 212 to 215 °C
pest or weed control at 200 ppm [1]: ≥ 80%

Cc1c(NC(=O)[C@@](C)(Cc2ccccc2)CC(F)(F)F)cnc2c(F)cccc12 [Compound F-14, (2S)-2-benzyl-4,4,4-trifluoro-N-(8-fluoro-4-methyl-3-quinolyl)-2-methyl-butanamide]
pest or weed control at 200 ppm [1]: ≥ 80%
